# Results published in US11219218B2, “Methods of enhancing algae production” (Boise State University, priority 2018, dated 2022).
# Where two headings read alike, the source gives them in different places.
# Key:
# N. oculata [1] = system: N. oculata
# Chlorella sorokiniana = conditions: Gutierrez et al., 2016; cited from earlier work
# Brachionus rotifer = conditions: cited from earlier work
# Scenedesmus obliquus = conditions: Abeliovich and Azov, 1976; cited from earlier work
# N. oculata [2] = conditions: for algal growth rate / final AFDW: co-culture with B. plicatilis; for final AFDW: day eight
# Description: (§1) Five free ammonia exposure times were chosen (0, 1, 2, 6, and 12 hours) with the goal of identifying which times may lead to an optimal reduction of B. plicatilis populations without negatively affecting N. oculata growth. We also used a rotifer-free control to observe the growth of N. oculata with neither rotifers nor elevated free ammonia exposure relative to experimental treatments. We conducted this experiment in both defined media (f/2) and dairy wastewater (ADE) to observe any differences between media types. For the defined medium trial, we created culture mixtures containing f/2 in ASW, 0.01 M Tris base, N. oculata at approximately 1×10^6 cells mL^−1 and B. plicatilis at approximately 10 rotifers mL^−1. NH4Cl was added to this mixture to initiate the period of free ammonia exposure. Similarly, for the dairy wastewater trial, we created culture mixtures containing ASW, 0.01 M Tris base, N. oculata at approximately 1×10^6 cells mL^−1, and B. plicatilis at approximately 10 rotifers/mL. The initial cell density of N. oculata was meant to represent a high-density culture nearing early stationary phase, which also allowed for increases in cell density. The initial rotifer density was chosen to represent initial stages of a contamination event after exposure of the algal culture to colonizing rotifer pests, at which point contamination is detectable yet treatable. ADE was added to this mixture to initiate the period of free ammonia exposure. For both trials, pH was immediately adjusted to 9 for the 1, 2, 6, and 12 hour treatments and held at this pH for the designated exposure time. The 0 hour and control treatments were adjusted to pH 6.3-6.5 via CO2 addition prior to addition of the ammonium source, thereby eliminating any exposure to elevated free ammonia. […] Thus, all treatments within an experiment received the same amount of CO2 and the same amount of total NH3—N. Flasks were shaken and stirred once daily on a stir plate while pH was being adjusted to desired level. In this experiment, pH was measured and controlled in each treatment using American Marine Pinpoint pH controllers.
# (§2) Samples for total NH3—N were collected at the beginning and end of the exposure time for each treatment in order to quantify potential loss of N from the system caused by volatilization of free ammonia. Densities of N. oculata and B. plicatilis were measured at the initial free ammonia exposure time, and every 24 hours thereafter for eight days. Live B. plicatilis were enumerated in triplicate 1 mL counts in a Sedgewick-Rafter counting chamber (Wildco item #EW-05491-64), and growth of N. oculata was tracked by both OD680 measurement and direct cell counts. Final ash free dry weight (AFDW) was measured on day eight for all replicates.
# (§3) We chose this range in order to eliminate possible free ammonia inhibition after the designated exposure period while also staying within the pH range for optimal growth of N. oculata.
# B. plicatilis [3] = conditions: for effect of elevated free ammonia exposure time on 24-hour rotifer survival: pH 9, exposure 0-12 hours; for mean rotifer densities over the eight-day experiment: f/2 and ADE media
# Description: as §1, §2, §3
# Nannochloropsis oculata = conditions: Gutierrez et al., 2016, cited from earlier work
# B. plicatilis [4] = system: B. plicatilis
# Chlorella pyrenoidosa = conditions: Tan et al., 2015; cited from earlier work
smiles,measurement,setting,value
"N [free ammonia, ammonia]",effect of free ammonia concentration on final OD680 levels,N. oculata [1]; ADE cultures,no effect
same,effect of initial free ammonia on growth rates,N. oculata [1]; ADE medium,no effect
same,OD680 levels of N. oculata with increasing free ammonia levels,N. oculata [1]; f/2 medium,increased
same,effect of initial free ammonia on growth rates,N. oculata [1]; f/2 medium,no effect
same,inhibition of N. oculata,"N. oculata [1]; f/2 or ADE media, any of the free ammonia levels tested, seven days",no observed inhibition
same,"highest level tested, not inhibited",Chlorella sorokiniana,16 mg free NH3—N
same,concentration that causes complete mortality,"Brachionus rotifer; Schlüter and Groeneweg, 1985",over 5 mg/L free NH3—N
same,concentration that reduces Brachionus rotifer reproduction,"Brachionus rotifer; de Araujo et al., 2000",≥ 2.4 mg/L
same,concentration tolerated without inhibition of photosynthesis or growth rate,Scenedesmus obliquus,up to 28 mg/L free NH3—N
same,effects on the alga Nannochloropsis oculata,"N. oculata [2]; 6-12 hours of elevated free ammonia, both media types",no negative effects
same,algal growth rate,N. oculata [2]; 6-hour exposure time,0.70 ± 0.01 day⁻¹
same,final AFDW,N. oculata [2]; 6-hour exposure time,0.37 ± 0.004 g/L
same,algal growth rate,N. oculata [2]; 12-hour exposure time,0.60 ± 0.06 day⁻¹
same,final AFDW,N. oculata [2]; 12-hour exposure time,0.38 ± 0.004 g/L
same,prediction formula for 24-hour B. plicatilis survival against exposure time (FIG. 3),"B. plicatilis [3]; ADE medium, 52.8 mg L^−1 free ammonia",ln(% survival)=4.768-0.2902*exposure time
same,effect of elevated free ammonia exposure time on 24-hour rotifer survival,B. plicatilis [3]; dairy ADE medium,significantly decreased
same,effect of elevated free ammonia exposure time on 24-hour rotifer survival,B. plicatilis [3]; f/2 medium,significantly decreased
same,mean rotifer densities over the eight-day experiment,B. plicatilis [3]; six-hour exposure time,remained below the initial density
same,mean rotifer densities over the eight-day experiment,B. plicatilis [3]; twelve-hour exposure time,remained below the initial density
same,rotifer density over the eight-day experiment,"B. plicatilis [3]; two hours or less of exposure, ADE medium","proliferated, with up to an order of magnitude increase in rotifer density"
same,"highest level tested, not inhibited",Nannochloropsis oculata,16 mg free NH3—N
same,lipid content of N. oculata,Nannochloropsis oculata; exposure to high free ammonia levels,not significantly altered
same,prediction formula for 24-hour rotifer survival against free ammonia concentration (FIG. 1A),B. plicatilis [4]; 5% ADE medium,ln(% survival)=3.606-0.0357*exposure time
same,relationship between initial free ammonia concentration and B. plicatilis survival after 24 hours,"B. plicatilis [4]; 5% dairy ADE, free ammonia 0.77-48.9 mg L^−1 (pH 7-9)",significant negative relationship
same,relationship between initial free ammonia concentration and B. plicatilis survival after 24 hours,"B. plicatilis [4]; ASW medium with NH4Cl, free ammonia 0.65-41.6 mg L^−1 (pH 7-9)",significant negative relationship
same,concentration tolerated without inhibition of photosynthesis or growth rate,Chlorella pyrenoidosa,up to 20 mg/L free NH3—N
